Here are results for 25 compounds from publication PMC6151762, “Halogenated 1-Hydroxynaphthalene-2-Carboxanilides Affecting Photosynthetic Electron Transport in Photosystem II” (Molecules : A Journal of Synthetic Chemistry and Natural …, 2017).

Several values for one entry are separate records, joined by “and”; a condition that tells them apart may be missing. Identical values can stand only once. Like-named read-outs stand apart in the source and are kept apart here.

Data set [1] deals with photosynthetic electron transport (PET) in spinach chloroplasts. Briefly: Inhibition of photosynthetic electron transport (PET) in spinach chloroplasts (DCPIP photoreduction). Format: biochemical, Spinacia oleracea L. To be noted: chlorophyll 30 mg/L. As for the experimental part: Chloroplasts were prepared from spinach (Spinacia oleracea L.) according to Masarovicova and Kralova. The inhibition of photosynthetic electron transport (PET) in spinach chloroplasts was determined spectrophotometrically (Genesys 6, Thermo Scientific, USA), using an artificial electron acceptor 2,6-dichlorophenol-indophenol (DCIPP) according to Kralova et al., and the rate of photosynthetic electron transport was monitored as photoreduction of DCPIP. The measurements were carried out in phosphate buffer (0.02 M, pH 7.2) containing sucrose (0.4 M), MgCl2 (0.005 M) and NaCl (0.015 M). The chlorophyll content was 30 mg/L in these experiments, and the samples were irradiated (~100 W/m^2 with 10 cm distance) with a halogen lamp (250 W) using a 4-cm water filter to prevent warming of the samples (suspension temperature 22 °C). The studied compounds were dissolved in DMSO due to their limited water solubility. […] The inhibitory efficiency of the studied compounds was expressed by IC50 values, i.e., by molar concentration of the compounds causing a 50% decrease in the […] relative to the untreated control.

Data set [2] is described as follows: Aqueous solubility (qualitative). Format: physicochemical. As to conditions: compared with 2,5-, 2,6-, 3,4- and 3,5-disubstituted derivatives.
In data set [3] the test system is aromatic amino acids (AAA) in photosynthetic proteins situated mainly in PS II. Briefly: Fluorescence of aromatic amino acids in spinach chloroplasts. To be noted: with increasing concentration (c = 0-47.2 μM); λex = 275 nm; chlorophyll 10 mg/L. Format: biochemical, Spinacia oleracea L. As for the experimental part: (§1) The fluorescence emission spectra of chlorophyll a (Chla) and aromatic amino acids in spinach chloroplasts were recorded on fluorescence spectrophotometer F-2000 (Hitachi, Tokyo, Japan) using excitation wavelength λex = 436 nm for monitoring the fluorescence of Chla and λex = 275 nm for monitoring the fluorescence of aromatic amino acids, excitation slit 20 nm and emission slit 10 nm. The samples were kept in the dark for 2 min prior to the measurement. The phosphate buffer used for dilution of the chloroplast suspension was the same as described above. Due to low aqueous solubility, the compounds were added to a chloroplast suspension in DMSO solution. The DMSO concentration in all samples was the same as in the control (10%). The chlorophyll concentration in chloroplast suspension was 10 mg/L.

The subject of data set [4] is chlorophyll a (Chla) in pigment-protein complexes in PS II. As to the kind of experiment: Fluorescence of chlorophyll a in spinach chloroplasts. As to conditions: with increasing concentration (c = 0, 56, 220, 431 μM); λex = 436 nm; chlorophyll 10 mg/L. Format: biochemical, Spinacia oleracea L. The protocol:
as §1

The test system of data set [5] is photosynthetic electron transport (PET) in spinach chloroplasts. Also noted: method as in Gonec et al. [11]. To be noted: compounds 1-7 published earlier, ref Gonec et al. [11], read-out: PET Inhibition IC50; cited from earlier work.

A word on the IC50: it is the concentration that inhibits the measured activity by half. For the compound `O=C(Nc1cc(Cl)ccc1Cl)c1ccc2ccccc2c1O` [Compound 10, N-(2,5-Dichlorophenyl)-1-hydroxynaphthalene-2-carboxamide], the IC50 in data set [1] worked out at 59.6 µM.

The compound `O=C(Nc1cccc(Cl)c1Cl)c1ccc2ccccc2c1O` [Compound 8, N-(2,3-Dichlorophenyl)-1-hydroxynaphthalene-2-carboxamide] returned an IC50 in data set [1] of 235 µM. In addition, in data set [2], the aqueous solubility entry is “limited aqueous solubility”.

The compound `O=C(Nc1cc(Cl)c(Cl)cc1Cl)c1ccc2ccccc2c1O` [Compound 14, 1-Hydroxy-N-(2,4,5-trichlorophenyl)naphthalene-2-carboxamide] showed an IC50 in data set [1] of 153 µM.

A word on the melting point: it is the temperature of the solid-liquid transition. In the case of `O=C(Nc1cc(Br)ccc1Cl)c1ccc2ccccc2c1O` [Compound 23, N-(5-Bromo-2-chlorophenyl)-1-hydroxynaphthalene-2-carboxamide], the melting point is 178 to 180 °C. For the same compound, in data set [3], the “AAA fluorescence at 334 nm” value is reported as “quenching of AAA fluorescence at 334 nm was observed”. The same compound registered a half-maximal inhibitory concentration (IC50) in data set [1] of 60.3 µM. Besides, the “intensity of Chla fluorescence emission band at 686 nm” value in data set [4] is recorded as “gradual decrease”.

`O=C(Nc1ccc(Cl)cc1)c1ccc2ccccc2c1O` [Compound 4]: the IC50 in data set [5] was 10.8 µM.

`O=C(Nc1ccc(Br)cc1)c1ccc2ccccc2c1O` [Compound 7]: the IC50 in data set [5] was 9.6 µM.

Compound `O=C(Nc1c(Br)cc(Br)cc1Br)c1ccc2ccccc2c1O` [Compound 20, 1-Hydroxy-N-(2,4,6-tribromophenyl)naphthalene-2-carboxamide] came in with a melting point of 115 to 118 °C. The compound further yielded an IC50 in data set [1] of 45 µM.

In the case of `O=C(Nc1cc(Cl)cc(Cl)c1)c1ccc2ccccc2c1O` [Compound 13, N-(3,5-Dichlorophenyl)-1-hydroxynaphthalene-2-carboxamide], the IC50 in data set [1] was 5.2 µM.

For the compound `O=C(Nc1ccc(Br)cc1Cl)c1ccc2ccccc2c1O` [Compound 22, N-(4-Bromo-2-chlorophenyl)-1-hydroxynaphthalene-2-carboxamide], the melting point lay within 186 to 187 °C. Besides, the IC50 in data set [1] was determined as 171 µM. Besides, the aqueous solubility entry in data set [2] was “limited aqueous solubility”.

Compound `O=C(Nc1cc(Br)ccc1Br)c1ccc2ccccc2c1O` [Compound 18, N-(2,5-Dibromophenyl)-1-hydroxynaphthalene-2-carboxamide] displayed a melting point of 198 to 200 °C. Further, the IC50 in data set [1] was 7.6 µM.

Regarding `O=C(Nc1cccc(Br)c1)c1ccc2ccccc2c1O` [Compound 6], the IC50 in data set [5] is 8.2 µM.

Consider `O=C(Nc1cccc(Cl)c1)c1ccc2ccccc2c1O` [Compound 3], for which the IC50 in data set [5] is 7.9 µM.

In turn, `O=C(Nc1ccc(Cl)cc1Br)c1ccc2ccccc2c1O` [Compound 21, N-(2-Bromo-4-chlorophenyl)-1-hydroxynaphthalene-2-carboxamide] showed a melting point of 182 to 184 °C. Besides, in data set [1], it took 278 µM to reach half-maximal inhibition (IC50). The aqueous solubility entry in data set [2] is given as “limited aqueous solubility”.

For the compound `O=C(Nc1cc(Cl)c(Cl)c(Cl)c1)c1ccc2ccccc2c1O` [Compound 16, 1-Hydroxy-N-(3,4,5-trichlorophenyl)naphthalene-2-carboxamide], the concentration for half-maximal inhibition (IC50) in data set [1] is 8 µM.

For the compound `O=C(Nc1ccc(Cl)c(Cl)c1)c1ccc2ccccc2c1O` [Compound 12, N-(3,4-Dichlorophenyl)-1-hydroxynaphthalene-2-carboxamide], in data set [1], the IC50 was found to be 13.3 µM.

For the compound `O=C(Nc1c(Cl)cccc1Cl)c1ccc2ccccc2c1O` [Compound 11, N-(2,6-Dichlorophenyl)-1-hydroxynaphthalene-2-carboxamide], inhibition in data set [1] was half-maximal at 100 µM (IC50).

With `O=C(Nc1ccccc1)c1ccc2ccccc2c1O` [Compound 1], the IC50 in data set [5] was 31.3 µM.

As to `O=C(Nc1ccccc1Br)c1ccc2ccccc2c1O` [Compound 5], in data set [5], the IC50 is 61.9 µM.

Take `O=C(Nc1ccccc1Cl)c1ccc2ccccc2c1O` [Compound 2]: the IC50 in data set [5] is 29.4 µM.

In turn, `O=C(Nc1c(Cl)cc(Cl)cc1Cl)c1ccc2ccccc2c1O` [Compound 15, 1-Hydroxy-N-(2,4,6-trichlorophenyl)naphthalene-2-carboxamide] registered an IC50 in data set [1] of 10.6 µM.

In turn, `O=C(Nc1ccc(Br)cc1Br)c1ccc2ccccc2c1O` [Compound 17, N-(2,4-Dibromophenyl)-1-hydroxynaphthalene-2-carboxamide] showed a melting point of 185 to 188 °C. In addition, in data set [1], the IC50 was 505 µM. In addition, the aqueous solubility result in data set [2] is on record as “limited aqueous solubility”.

Turning to `O=C(Nc1ccc(Br)c(Cl)c1)c1ccc2ccccc2c1O` [Compound 24, N-(4-Bromo-3-chlorophenyl)-1-hydroxynaphthalene-2-carboxamide], the melting point is 203 to 205 °C. The IC50 in data set [1] came out at 6.7 µM.

In the case of `O=C(Nc1c(Br)cccc1Br)c1ccc2ccccc2c1O` [Compound 19, N-(2,6-Dibromophenyl)-1-hydroxynaphthalene-2-carboxamide], the melting point fell in the range of 212 to 216 °C. In addition, in data set [1], the IC50 came to 78 µM.

As for `O=C(Nc1ccc(Cl)cc1Cl)c1ccc2ccccc2c1O` [Compound 9, N-(2,4-Dichlorophenyl)-1-hydroxynaphthalene-2-carboxamide], it took 531 µM to reach half-maximal inhibition in data set [1] (IC50). Moreover, in data set [2], the aqueous solubility entry is “limited aqueous solubility”.

Regarding `CN(C)C(=O)Nc1ccc(Cl)c(Cl)c1` [DCMU, 3-(3,4-dichlorophenyl)-1,1-dimethylurea, reference compound], the IC50 in data set [1] was ~1.9 µM and 1.9 µM.
